According to PMC12238723, “Phase I Clinical Trial of CVL218, a Novel PARP1/2 Inhibitor, in Patients with Advanced Solid Tumors” (MedComm, 2025):

Test system: patients with advanced solid tumors
Experiment: Treatment-related adverse events (CTCAE v5.0), phase I dose escalation
Assay type: in vivo
Text: This study was a single‐arm, dose‐escalation phase I trial conducted in Sun Yat‐sen University Cancer Center in China. This study assessed CVL218 in patients with histologically or cytologically confirmed advanced solid tumors who were in PD after standard therapeutic regimens or lacked standard treatment options. Inclusion criteria included: age 18–75 years; with at least one measurable and evaluable target lesion per Response Evaluation Criteria in Solid Tumors 1.1 (RECIST 1.1); ECOG performance status of 0 or 1; adequate hematological, renal, cardiac, and hepatic functions and a life expectancy ≥12 weeks. Key exclusion criteria included prior usage of PARP inhibitors; allergic to the research drug or its components; with active, unstable systemic diseases or active, uncontrolled infection; a history of other malignancies within 5 years, and pregnant or lactating women.
CVL218 was administered orally, and this dose‐escalation trial included nine dose levels: 100 mg QD (50 mg BID), 200 mg QD (100 mg BID), 400 mg QD (200 mg BID), 700 mg QD (350 mg BID), 1000 mg QD (500 mg BID), 1200 mg QD (600 mg BID), 1400 mg QD (700 mg BID), 1700 mg QD (850 mg BID), and 2000 mg QD (1000 mg BID). Patients enrolled in the study received a single oral dose on the first day, followed by continuous multiple dosing (twice a day taking 12 h apart) after 72 h, with the treatment cycle lasting 4 weeks. The period during which patients received a single dose is designated as cycle 0 (C0), lasting 72 h. After this period, patients begin multiple dosing, referred to as cycle 1 (C1). An initial accelerated titration design was employed for the three lowest dose groups, and the “3+3” design was applied starting with the 300 mg BID cohort.
The primary objectives were to assess safety and tolerability as well as to determine the MTD, DLT, and dose recommended for further study. DLT was defined as any of the following events occurring during cycle 0 (including 72 h wash‐out period after a single dose) and cycle 1 per Common Terminology Criteria for Adverse Events (CTCAE) version 5.0: grade 4 anemia; grade 4 neutropenia; grade 3 neutropenia with fever ≥38.5°C; grade 4 thrombocytopenia; grade 3 thrombocytopenia associated with bleeding; grade ≥2 neurotoxicity; any other grade ≥3 nonhematological toxicities (excluding alopecia). The secondary objectives were to assess the PK and preliminary efficacy of CVL218.
Subjects who received at least one dose of CVL218 with postadministration safety records were included in safety analysis set. Subjects who received at least one dose of CVL218 with at least one evaluable PK parameter were included in PK analysis set. Per‐protocol set were used for efficacy analysis. Descriptive statistics of safety were presented per CTCAE v5.0. The PK parameters T max and T 1/2 were shown as the median (min, max) and mean ± SD, respectively. A two‐sided p < 0.05 was considered to indicate statistical significance. Statistical analysis was performed by using GraphPad prism 8.0.2 and R‐4.3.3.

CNCc1ccc(-c2cc3cc(F)cc(C(N)=O)c3o2)cc1.Cl [CVL218]
Musculoskeletal discomfort (850 mg BID, ≥G3): 0 n (%)
Musculoskeletal disorders (850 mg BID, ≥G3): 0 n (%)
Nausea (850 mg BID, ≥G3): 0 n (%)
Nervous system disorders (850 mg BID, ≥G3): 0 n (%)
Neutrophil count decreased (850 mg BID, ≥G3): 0 n (%)
Neutrophil count increased (850 mg BID, ≥G3): 0 n (%)
Palpitations (850 mg BID, ≥G3): 0 n (%)
Protein urine present (850 mg BID, ≥G3): 0 n (%)
Proteinuria (850 mg BID, ≥G3): 0 n (%)
Rash (850 mg BID, ≥G3): 0 n (%)
Renal & urinary disorders (850 mg BID, ≥G3): 0 n (%)
Renal failure (850 mg BID, ≥G3): 0 n (%)
Reproductive disorders (850 mg BID, ≥G3): 0 n (%)
Skin disorders (850 mg BID, ≥G3): 0 n (%)
Urinary occult blood positive (850 mg BID, ≥G3): 0 n (%)
Vomiting (850 mg BID, ≥G3): 0 n (%)
WBC count decreased (850 mg BID, ≥G3): 0 n (%)
WBC count increased (850 mg BID, ≥G3): 0 n (%)
ALT increased (All (N = 26), ALL): 4 (15.4) n (%)
AST increased (All (N = 26), ALL): 2 (7.7) n (%)
Abdominal distension (All (N = 26), ALL): 1 (3.8) n (%)
Abdominal pain (All (N = 26), ALL): 1 (3.8) n (%)
Abdominal pain upper (All (N = 26), ALL): 1 (3.8) n (%)
Amylase increased (All (N = 26), ALL): 2 (7.7) n (%)
Anemia (All (N = 26), ALL): 2 (7.7) n (%)
Any AE related to study drug (All (N = 26), ALL): 26 (100) n (%)
Asthenia (All (N = 26), ALL): 2 (7.7) n (%)
Blood creatinine increased (All (N = 26), ALL): 5 (19.2) n (%)
Blood system disorders (All (N = 26), ALL): 2 (7.7) n (%)
Blood triglycerides increased (All (N = 26), ALL): 1 (3.8) n (%)
Blood urea increased (All (N = 26), ALL): 1 (3.8) n (%)
Cardiac disorders (All (N = 26), ALL): 1 (3.8) n (%)
Chest discomfort (All (N = 26), ALL): 2 (7.7) n (%)
Constipation (All (N = 26), ALL): 2 (7.7) n (%)
Decreased appetite (All (N = 26), ALL): 5 (19.2) n (%)
Diarrhea (All (N = 26), ALL): 10 (38.5) n (%)
Dizziness (All (N = 26), ALL): 3 (11.5) n (%)
Erectile dysfunction (All (N = 26), ALL): 1 (3.8) n (%)
Gastrointestinal disorders (All (N = 26), ALL): 24 (92.3) n (%)
General disorders (All (N = 26), ALL): 4 (15.4) n (%)
Gingival bleeding (All (N = 26), ALL): 1 (3.8) n (%)
Granulocyte count increased (All (N = 26), ALL): 1 (3.8) n (%)
Headache (All (N = 26), ALL): 2 (7.7) n (%)
Hypoalbuminemia (All (N = 26), ALL): 2 (7.7) n (%)
Infusion site pain (All (N = 26), ALL): 1 (3.8) n (%)
Laboratory test disorders (All (N = 26), ALL): 15 (57.7) n (%)
Limb discomfort (All (N = 26), ALL): 1 (3.8) n (%)
Lipase increased (All (N = 26), ALL): 6 (23.1) n (%)
Metabolic disorders (All (N = 26), ALL): 6 (23.1) n (%)
Musculoskeletal discomfort (All (N = 26), ALL): 1 (3.8) n (%)
Musculoskeletal disorders (All (N = 26), ALL): 1 (3.8) n (%)
Nausea (All (N = 26), ALL): 20 (76.9) n (%)
Nervous system disorders (All (N = 26), ALL): 4 (15.4) n (%)
Neutrophil count decreased (All (N = 26), ALL): 1 (3.8) n (%)
Neutrophil count increased (All (N = 26), ALL): 2 (7.7) n (%)
Palpitations (All (N = 26), ALL): 1 (3.8) n (%)
Protein urine present (All (N = 26), ALL): 1 (3.8) n (%)
Proteinuria (All (N = 26), ALL): 6 (23.1) n (%)
Rash (All (N = 26), ALL): 3 (11.5) n (%)
Renal & urinary disorders (All (N = 26), ALL): 7 (26.9) n (%)
Renal failure (All (N = 26), ALL): 3 (11.5) n (%)
Reproductive disorders (All (N = 26), ALL): 1 (3.8) n (%)
Skin disorders (All (N = 26), ALL): 3 (11.5) n (%)
Urinary occult blood positive (All (N = 26), ALL): 1 (3.8) n (%)
Vomiting (All (N = 26), ALL): 20 (76.9) n (%)
WBC count decreased (All (N = 26), ALL): 1 (3.8) n (%)
WBC count increased (All (N = 26), ALL): 2 (7.7) n (%)
ALT increased (All (N = 26), ≥G3): 0 n (%)
AST increased (All (N = 26), ≥G3): 0 n (%)
Abdominal distension (All (N = 26), ≥G3): 0 n (%)
Abdominal pain (All (N = 26), ≥G3): 1 (3.8) n (%)
Abdominal pain upper (All (N = 26), ≥G3): 0 n (%)
Amylase increased (All (N = 26), ≥G3): 0 n (%)
Anemia (All (N = 26), ≥G3): 0 n (%)
Any AE related to study drug (All (N = 26), ≥G3): 4 (15.4) n (%)
Asthenia (All (N = 26), ≥G3): 0 n (%)
Blood creatinine increased (All (N = 26), ≥G3): 3 (11.5) n (%)
Blood system disorders (All (N = 26), ≥G3): 0 n (%)
Blood triglycerides increased (All (N = 26), ≥G3): 0 n (%)
Blood urea increased (All (N = 26), ≥G3): 1 (3.8) n (%)
Cardiac disorders (All (N = 26), ≥G3): 0 n (%)
Chest discomfort (All (N = 26), ≥G3): 0 n (%)
Constipation (All (N = 26), ≥G3): 0 n (%)
Decreased appetite (All (N = 26), ≥G3): 0 n (%)
Diarrhea (All (N = 26), ≥G3): 0 n (%)
Dizziness (All (N = 26), ≥G3): 0 n (%)
Erectile dysfunction (All (N = 26), ≥G3): 0 n (%)
Gastrointestinal disorders (All (N = 26), ≥G3): 1 (3.8) n (%)
General disorders (All (N = 26), ≥G3): 0 n (%)
Gingival bleeding (All (N = 26), ≥G3): 0 n (%)
Granulocyte count increased (All (N = 26), ≥G3): 0 n (%)
Headache (All (N = 26), ≥G3): 0 n (%)
Hypoalbuminemia (All (N = 26), ≥G3): 0 n (%)
Infusion site pain (All (N = 26), ≥G3): 0 n (%)
Laboratory test disorders (All (N = 26), ≥G3): 4 (15.4) n (%)
Limb discomfort (All (N = 26), ≥G3): 0 n (%)
Lipase increased (All (N = 26), ≥G3): 1 (3.8) n (%)
Metabolic disorders (All (N = 26), ≥G3): 0 n (%)
Musculoskeletal discomfort (All (N = 26), ≥G3): 0 n (%)
Musculoskeletal disorders (All (N = 26), ≥G3): 0 n (%)
Nausea (All (N = 26), ≥G3): 0 n (%)
Nervous system disorders (All (N = 26), ≥G3): 0 n (%)
Neutrophil count decreased (All (N = 26), ≥G3): 0 n (%)
Neutrophil count increased (All (N = 26), ≥G3): 0 n (%)
Palpitations (All (N = 26), ≥G3): 0 n (%)
Protein urine present (All (N = 26), ≥G3): 0 n (%)
Proteinuria (All (N = 26), ≥G3): 0 n (%)
Rash (All (N = 26), ≥G3): 0 n (%)
Renal & urinary disorders (All (N = 26), ≥G3): 0 n (%)
Renal failure (All (N = 26), ≥G3): 0 n (%)
Reproductive disorders (All (N = 26), ≥G3): 0 n (%)
Skin disorders (All (N = 26), ≥G3): 0 n (%)
Urinary occult blood positive (All (N = 26), ≥G3): 0 n (%)
Vomiting (All (N = 26), ≥G3): 0 n (%)
WBC count decreased (All (N = 26), ≥G3): 0 n (%)
WBC count increased (All (N = 26), ≥G3): 0 n (%)
TRAE of any grade: diarrhea (all 26 patients): 38.5%
TRAE of any grade: lipase increased (all 26 patients): 23.1%
TRAE of any grade: nausea (all 26 patients): 76.9%
TRAE of any grade: proteinuria (all 26 patients): 23.1%
TRAE of any grade: vomiting (all 26 patients): 76.9%
patients with ≥grade 3 TRAEs (all 26 patients): 15.4%
≥grade 3 TRAE: abdominal pain (all 26 patients): 3.8%
anemia of grade 3 or more severe (in vivo): None of the anemias were of grade 3 or more severe
grade ≥3 gastrointestinal AEs (in vivo): 3.8%
patients with gastrointestinal reactions (in vivo): 92.3%
≥grade 3 TRAE: blood creatinine increased (in vivo): 11.5%
≥grade 3 TRAE: blood urea increased (in vivo): 3.8%
≥grade 3 TRAE: lipase increased (in vivo): 3.8%
